Source: patent publication US5773421A, “Antifungal fusacandins” (Abbott Laboratories, priority 1995, dated 1998)
Values after ≈ are worked out from the molar mass of the structure shown. Read-outs that look alike come from different tables or passages of the source.

Key:
Assay in all cases: MIC by agar dilution method
Type in all cases: cell-based
Candida albicans CCH 442 = conditions: CCH442; Table 6c, 3rd value column (head printed II); III Candida albicans CCH 442; agar dilution; read-out: MIC II
Experimental: (§1) Minimal inhibitory concentrations (MICs) were determined by an agar dilution method. The test compounds were serially diluted in MeOH and 0.2 mL portions were mixed with 20 mL of molten, cooled Sabouraud dextrose agar (Difco). Yeast cell inoculum was prepared by growing cultures on Sabouraud dextrose agar for 18 hours at 32° C. and suspending the cells in phosphate buffered saline. Filamentous fungi were grown under the same conditions for 4 days to obtain spores. The inoculum level for all cultures was adjusted to 10^4 cells using a Petroff-Hauser cell counter. The glutarimide antifungal compounds cycloheximide or amphotericin B were used as a control. Inoculated test plates were incubated at 32° C. and examined after 20 hours.

[1] = test system: Candida albicans ATCC 10231
Experimental: as §1

Candida albicans 579a = conditions: read-out: MIC II
Experimental: as §1

[2] = test system: Candida albicans ATCC 38247
Experimental: as §1

[3] = test system: Candida albicans ATCC 62376
Experimental: as §1

[4] = ATCC10231, Table 6c, I Candida albicans ATCC 10231, agar dilution, read-out: MIC I
[5] = Table 6c, II Candida albicans 579a, agar dilution
[6] = ATCC38247, Table 6c, IV Candida albicans ATCC 38247, agar dilution, read-out: MIC IV
[7] = ATCC62376, Table 6c, V Candida albicans ATCC 62376, agar dilution, read-out: MIC V
[8] = Candida albicans, ATCC10231, read-out: MIC I
[9] = Candida albicans, ATCC38247, read-out: MIC IV
[10] = Candida albicans, ATCC62376, read-out: MIC V

SMILES	MIC (Candida albicans CCH 442) [µg/mL]	MIC [1, 4] [µg/mL]	MIC (Candida albicans 579a; [5]) [µg/mL]	MIC [2, 6] [µg/mL]	MIC [3, 7] [µg/mL]	MIC [1, 8] [µg/mL]	MIC (Candida albicans 579a; Candida albicans, 579A) [µg/mL]	MIC [2, 9] [µg/mL]	MIC [3, 10] [µg/mL]
CCCCC/C=C/C=C/[C@@H](O)C/C=C/C=C/C(=O)O[C@@H]1[C@@H](O)[C@H](c2c(O)cc(O)cc2CO)O[C@H](CO)[C@H]1O[C@@H]1O[C@H](COC(=O)Cc2ccc3ccccc3c2)[C@H](O)[C@H](O)[C@H]1O[C@@H]1O[C@H](CO)[C@H](O)[C@H](O)[C@H]1O [Example 22]	3.12 (≈ 3 µM)	6.25 (≈ 6 µM)	3.12 (≈ 3 µM)	12.5 (≈ 12 µM)	6.25 (≈ 6 µM)	–	–	–	–
C=CCOc1ccc2cc(C(=O)OC[C@H]3O[C@@H](O[C@H]4[C@H](OC(=O)/C=C/C=C/C[C@H](O)/C=C/C=C/CCCCC)[C@@H](O)[C@H](c5c(O)cc(O)cc5CO)O[C@@H]4CO)[C@H](O[C@@H]4O[C@H](CO)[C@H](O)[C@H](O)[C@H]4O)[C@@H](O)[C@H]3O)ccc2c1 [Example 23]	6.25 (≈ 5.77 µM)	12.5 (≈ 11.5 µM)	3.12 (≈ 2.88 µM)	6.25 (≈ 5.77 µM)	6.25 (≈ 5.77 µM)	–	–	–	–
CCCCC/C=C/C=C/[C@@H](O)C/C=C/C=C/C(=O)O[C@@H]1[C@@H](O)[C@H](c2c(O)cc(O)cc2CO)O[C@H](CO)[C@H]1O[C@@H]1O[C@H](COC(=O)c2ccc3cc(OCc4ccccc4)ccc3c2)[C@H](O)[C@H](O)[C@H]1O[C@@H]1O[C@H](CO)[C@H](O)[C@H](O)[C@H]1O [Example 24]	25 (≈ 22.1 µM)	25 (≈ 22.1 µM)	25 (≈ 22.1 µM)	50 (≈ 44.1 µM)	25 (≈ 22.1 µM)	–	–	–	–
CCCCC/C=C/C=C/[C@@H](O)C/C=C/C=C/C(=O)O[C@@H]1[C@@H](O)[C@H](c2c(O)cc(O)cc2CO)O[C@H](CO)[C@H]1O[C@@H]1O[C@H](COC(=O)c2ccc3c(ccc4ccccc43)c2)[C@H](O)[C@H](O)[C@H]1O[C@@H]1O[C@H](CO)[C@H](O)[C@H](O)[C@H]1O [Example 25]	0.78 (≈ 0.724 µM)	–	–	–	–	1.56 (≈ 1.45 µM)	0.78 (≈ 0.724 µM)	1.56 (≈ 1.45 µM)	1.56 (≈ 1.45 µM)
CCCCC/C=C/C=C/[C@@H](O)C/C=C/C=C/C(=O)O[C@@H]1[C@@H](O)[C@H](c2c(O)cc(O)cc2CO)O[C@H](CO)[C@H]1O[C@@H]1O[C@H](COC(=O)c2ccc3ccc4ccccc4c3c2)[C@H](O)[C@H](O)[C@H]1O[C@@H]1O[C@H](CO)[C@H](O)[C@H](O)[C@H]1O [Example 26]	1.56 (≈ 1.45 µM)	–	–	–	–	0.78 (≈ 0.724 µM)	0.78 (≈ 0.724 µM)	1.56 (≈ 1.45 µM)	0.78 (≈ 0.724 µM)
CCCCC/C=C/C=C/[C@@H](O)C/C=C/C=C/C(=O)O[C@@H]1[C@@H](O)[C@H](c2c(O)cc(O)cc2CO)O[C@H](CO)[C@H]1O[C@@H]1O[C@H](COC(=O)c2cc3ccccc3c3ccccc23)[C@H](O)[C@H](O)[C@H]1O[C@@H]1O[C@H](CO)[C@H](O)[C@H](O)[C@H]1O [Example 27]	3.12 (≈ 2.9 µM)	–	–	–	–	3.12 (≈ 2.9 µM)	3.12 (≈ 2.9 µM)	6.25 (≈ 5.8 µM)	3.12 (≈ 2.9 µM)
CCCCC/C=C/C=C/[C@@H](O)C/C=C/C=C/C(=O)O[C@@H]1[C@@H](O)[C@H](c2c(O)cc(O)cc2CO)O[C@H](CO)[C@H]1O[C@@H]1O[C@H](COC(=O)c2ccc(Oc3ccccc3)cc2)[C@H](O)[C@H](O)[C@H]1O[C@@H]1O[C@H](CO)[C@H](O)[C@H](O)[C@H]1O [Example 31]	3.12 (≈ 2.92 µM)	3.12 (≈ 2.92 µM)	1.56 (≈ 1.46 µM)	3.12 (≈ 2.92 µM)	3.12 (≈ 2.92 µM)	–	–	–	–
CCCCC/C=C/C=C/[C@@H](O)C/C=C/C=C/C(=O)O[C@@H]1[C@@H](O)[C@H](c2c(O)cc(O)cc2CO)O[C@H](CO)[C@H]1O[C@@H]1O[C@H](COC(=O)c2cccc(-c3ccc(-c4ccccc4)cc3)c2)[C@H](O)[C@H](O)[C@H]1O[C@@H]1O[C@H](CO)[C@H](O)[C@H](O)[C@H]1O [Example 34]	6.25 (≈ 5.53 µM)	6.25 (≈ 5.53 µM)	3.12 (≈ 2.76 µM)	6.25 (≈ 5.53 µM)	3.12 (≈ 2.76 µM)	–	–	–	–

Continued, in another order:

MIC (Candida albicans CCH 442) [µg/mL]	MIC [1, 4] [µg/mL]	MIC (Candida albicans 579a; [5]) [µg/mL]	MIC [2, 6] [µg/mL]	MIC [3, 7] [µg/mL]	SMILES	MIC [1, 8] [µg/mL]	MIC (Candida albicans 579a; Candida albicans, 579A) [µg/mL]	MIC [2, 9] [µg/mL]	MIC [3, 10] [µg/mL]
1.56 (≈ 1.52 µM)	3.12 (≈ 3.04 µM)	0.78 (≈ 0.759 µM)	0.78 (≈ 0.759 µM)	3.12 (≈ 3.04 µM)	CCCCC/C=C/C=C/[C@@H](O)C/C=C/C=C/C(=O)O[C@@H]1[C@@H](O)[C@H](c2c(O)cc(O)cc2CO)O[C@H](CO)[C@H]1O[C@@H]1O[C@H](COC(=O)c2ccc3ccccc3c2)[C@H](O)[C@H](O)[C@H]1O[C@@H]1O[C@H](CO)[C@H](O)[C@H](O)[C@H]1O [Example 19]	–	–	–	–
3.12 (≈ 3.04 µM)	3.12 (≈ 3.04 µM)	3.12 (≈ 3.04 µM)	1.56 (≈ 1.52 µM)	6.25 (≈ 6.09 µM)	CCCCC/C=C/C=C/[C@@H](O)C/C=C/C=C/C(=O)O[C@@H]1[C@@H](O)[C@H](c2c(O)cc(O)cc2CO)O[C@H](CO)[C@H]1O[C@@H]1O[C@H](COC(=O)c2cccc3ccccc23)[C@H](O)[C@H](O)[C@H]1O[C@@H]1O[C@H](CO)[C@H](O)[C@H](O)[C@H]1O [Example 20]	–	–	–	–
0.78 (≈ 0.721 µM)	0.78 (≈ 0.721 µM)	0.2 (≈ 0.185 µM)	0.78 (≈ 0.721 µM)	0.39 (≈ 0.361 µM)	CCCCC/C=C/C=C/[C@@H](O)C/C=C/C=C/C(=O)O[C@@H]1[C@@H](O)[C@H](c2c(O)cc(O)cc2CO)O[C@H](CO)[C@H]1O[C@@H]1O[C@H](COC(=O)c2ccc(-c3ccc(CC)cc3)cc2)[C@H](O)[C@H](O)[C@H]1O[C@@H]1O[C@H](CO)[C@H](O)[C@H](O)[C@H]1O [Example 21]	–	–	–	–
0.39 (≈ 0.371 µM)	1.56 (≈ 1.48 µM)	0.39 (≈ 0.371 µM)	0.78 (≈ 0.742 µM)	1.56 (≈ 1.48 µM)	CCCCC/C=C/C=C/[C@@H](O)C/C=C/C=C/C(=O)O[C@@H]1[C@@H](O)[C@H](c2c(O)cc(O)cc2CO)O[C@H](CO)[C@H]1O[C@@H]1O[C@H](COC(=O)c2ccc3c(c2)-c2ccccc2-3)[C@H](O)[C@H](O)[C@H]1O[C@@H]1O[C@H](CO)[C@H](O)[C@H](O)[C@H]1O [Example 28]	–	–	–	–
1.56 (≈ 1.41 µM)	1.56 (≈ 1.41 µM)	0.78 (≈ 0.707 µM)	1.56 (≈ 1.41 µM)	1.56 (≈ 1.41 µM)	CCCCC/C=C/C=C/[C@@H](O)C/C=C/C=C/C(=O)O[C@@H]1[C@@H](O)[C@H](c2c(O)cc(O)cc2CO)O[C@H](CO)[C@H]1O[C@@H]1O[C@H](COC(=O)c2ccc(-c3ccc4ccccc4c3)cc2)[C@H](O)[C@H](O)[C@H]1O[C@@H]1O[C@H](CO)[C@H](O)[C@H](O)[C@H]1O [Example 29]	–	–	–	–
0.78 (≈ 0.741 µM)	0.78 (≈ 0.741 µM)	0.78 (≈ 0.741 µM)	1.56 (≈ 1.48 µM)	0.78 (≈ 0.741 µM)	CCCCC/C=C/C=C/[C@@H](O)C/C=C/C=C/C(=O)O[C@@H]1[C@@H](O)[C@H](c2c(O)cc(O)cc2CO)O[C@H](CO)[C@H]1O[C@@H]1O[C@H](COC(=O)c2ccc(-c3ccccc3)cc2)[C@H](O)[C@H](O)[C@H]1O[C@@H]1O[C@H](CO)[C@H](O)[C@H](O)[C@H]1O [Example 30]	–	–	–	–
0.78 (≈ 0.72 µM)	0.78 (≈ 0.72 µM)	1.56 (≈ 1.44 µM)	3.12 (≈ 2.88 µM)	0.78 (≈ 0.72 µM)	CCCCC/C=C/C=C/[C@@H](O)C/C=C/C=C/C(=O)O[C@@H]1[C@@H](O)[C@H](c2c(O)cc(O)cc2CO)O[C@H](CO)[C@H]1O[C@@H]1O[C@H](COC(=O)c2ccc(-c3ccc(OC)cc3)cc2)[C@H](O)[C@H](O)[C@H]1O[C@@H]1O[C@H](CO)[C@H](O)[C@H](O)[C@H]1O [Example 32]	–	–	–	–
0.78 (≈ 0.691 µM)	1.56 (≈ 1.38 µM)	0.78 (≈ 0.691 µM)	3.12 (≈ 2.76 µM)	0.78 (≈ 0.691 µM)	CCCCC/C=C/C=C/[C@@H](O)C/C=C/C=C/C(=O)O[C@@H]1[C@@H](O)[C@H](c2c(O)cc(O)cc2CO)O[C@H](CO)[C@H]1O[C@@H]1O[C@H](COC(=O)c2ccc(-c3ccc(-c4ccccc4)cc3)cc2)[C@H](O)[C@H](O)[C@H]1O[C@@H]1O[C@H](CO)[C@H](O)[C@H](O)[C@H]1O [Example 33]	–	–	–	–
1.56 (≈ 1.42 µM)	1.56 (≈ 1.42 µM)	0.78 (≈ 0.711 µM)	1.56 (≈ 1.42 µM)	1.56 (≈ 1.42 µM)	CCCCC/C=C/C=C/[C@@H](O)C/C=C/C=C/C(=O)O[C@@H]1[C@@H](O)[C@H](c2c(O)cc(O)cc2CO)O[C@H](CO)[C@H]1O[C@@H]1O[C@H](COC(=O)c2ccc(-c3ccc4c(c3)OCO4)cc2)[C@H](O)[C@H](O)[C@H]1O[C@@H]1O[C@H](CO)[C@H](O)[C@H](O)[C@H]1O [Example 36]	–	–	–	–
